Test results taken from PMC3495162 (Journal of medicinal chemistry, 2012).
“Also recorded” adds a separate entry of the source. Read-outs that look alike come from different tables or passages of the source. One block for each compound: values may come before it.

Assays:
Bcl-xL [1] = biological target: T1, Bcl-xL (Homo sapiens, UniProt Q07817); assay: Fluorescence polarization competitive binding assay, Bcl-xL; conditions: for Times less potent than 5 in binding affinity to Bcl-xL: relative to compound 5
[2] = test system: H146 xenograft tumor model; assay: Antitumor efficacy in H146 xenograft tumor model; type: in vivo, SCID mice; conditions: for Antitumor activity in H146 xenograft tumor model / Weight loss in tumor-bearing animals compared to the vehicle control: 28 at 50 mg/kg, 30 at 25 mg/kg, i.v., daily, 5 days a week for two weeks
H146 cancer cells = assay: Western blot of PARP and caspase-3 cleavage in cells; type: cell-based; conditions: 24 hr
H146 cell line = assay: Cell death assay; type: cell-based; conditions: for Potency in induction of cell death relative to 1 and 2: H146, 24 hr; for Concentration with a similar effect (>50% of H146 cells undergoing cell death): 24 hr treatment, trypan blue
Bcl-2 [3] = biological target: T2, Bcl-2 (Homo sapiens, UniProt P10415); assay: Fluorescence polarization competitive binding assay, Bcl-2
H146 xenograft tumors = assay: Pharmacodynamics: PARP and caspase-3 cleavage in xenograft tumor tissue; type: in vivo, SCID mice; conditions: single i.v. dose, 28 at 50 mg/kg or 30 at 25 mg/kg; 3- and 6-h time-points
[4] = Maximum tolerated dose determination; conditions: 75 mg/kg for 28, 50 mg/kg for 30, 25 mg/kg for 31
small cell lung cancer = conditions: Phase I/II clinical trials; cited from earlier work
[5] = test system: chronic lymphocytic leukemia; conditions: Phase I/II clinical trials; cited from earlier work
[6] = test system: multiple xenograft tumor models; conditions: cited from earlier work
Mcl-1 = Mcl-1 (Homo sapiens, UniProt Q07820); assay: Fluorescence polarization competitive binding assay, Mcl-1; conditions: at concentrations as high as 5 μM
[7] = test system: H146 small-cell lung cancer cell line; assay: Cell growth inhibition assay, H146; type: cell-based; conditions: for Times less potent than 30 and 31 in inhibition of cell growth, H146: relative to compounds 30 and 31
[8] = test system: H1417 small-cell lung cancer cell line; assay: Cell growth inhibition assay, H1417; type: cell-based; conditions: for Times less potent than 30 and 31 in inhibition of cell growth, H1417: relative to compounds 30 and 31
Bcl-2 [9] = biological target: T2, Bcl-2; conditions: read-out: Bcl-2 Ki; cited from earlier work
Bcl-xL [10] = biological target: T1, Bcl-xL; conditions: read-out: Bcl-xL Ki; cited from earlier work
[11] = test system: H146 xenograft tumor model; conditions: well-tolerated dose-schedule, mice; cited from earlier work

T1 sequence (Q07817 whole entry): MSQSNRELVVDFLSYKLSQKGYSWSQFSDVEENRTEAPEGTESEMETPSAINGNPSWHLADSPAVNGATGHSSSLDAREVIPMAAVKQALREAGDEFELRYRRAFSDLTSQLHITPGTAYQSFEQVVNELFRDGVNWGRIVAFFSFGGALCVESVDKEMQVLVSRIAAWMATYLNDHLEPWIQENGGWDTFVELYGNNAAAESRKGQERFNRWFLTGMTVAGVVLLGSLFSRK
Sequence of Mcl-1 (Q07820 whole entry): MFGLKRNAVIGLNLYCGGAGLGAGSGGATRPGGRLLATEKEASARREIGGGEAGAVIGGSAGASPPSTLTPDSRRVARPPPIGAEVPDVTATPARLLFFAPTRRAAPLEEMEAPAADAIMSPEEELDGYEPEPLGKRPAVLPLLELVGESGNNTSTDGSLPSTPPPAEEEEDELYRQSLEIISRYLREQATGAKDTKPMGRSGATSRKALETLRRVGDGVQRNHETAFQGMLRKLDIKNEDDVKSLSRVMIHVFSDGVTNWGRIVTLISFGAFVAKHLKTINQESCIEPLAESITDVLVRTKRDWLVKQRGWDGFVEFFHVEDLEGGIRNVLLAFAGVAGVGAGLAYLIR
T2 sequence (P10415 whole entry): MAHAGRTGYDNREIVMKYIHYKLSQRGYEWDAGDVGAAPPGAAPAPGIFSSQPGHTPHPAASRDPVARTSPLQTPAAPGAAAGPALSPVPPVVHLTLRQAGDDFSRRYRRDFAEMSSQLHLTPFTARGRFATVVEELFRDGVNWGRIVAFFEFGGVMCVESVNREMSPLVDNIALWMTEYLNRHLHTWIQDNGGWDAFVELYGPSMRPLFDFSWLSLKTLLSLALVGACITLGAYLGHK

SMILES: CCn1c(C)c(C(=O)O)c(-c2cccc(N3CCN(c4ccc(NS(=O)(=O)c5ccc(N[C@H](CCN6CCC(O)CC6)CSc6ccccc6)c(S(=O)(=O)C(F)(F)F)c5)cc4)CC3)c2)c1-c1ccc(Cl)cc1 [Compound 30, (R)-5-(4-Chlorophenyl)-1-ethyl-4-(3-(4-(4-(4-(4-(4-hydroxypiperidin-1-yl)-1-(phenylthio)butan-2-ylamino)-3-(trifluoromethylsulfonyl)phenylsulfonamido)phenyl)piperazin-1-yl)phenyl)-2-methyl-1H-pyrrole-3-carboxylic Acid]
Antitumor activity in H146 xenograft tumor model [2]: rapid, complete and durable tumor regression
Weight loss in tumor-bearing animals compared to the vehicle control [2]: less than 10%
Tumor-free mice at day 47 (15 days post-treatment) ([2]; 30 at 25 mg/kg i.v., 7 mice treated): all mice were tumor-free
Concentration inducing clear cleavage of PARP and activation of caspase-3 (H146 cancer cells): 10 nM
Ki (Bcl-xL [1]): < 1 nM
Potency in induction of cell death relative to 1 and 2 (H146 cell line): several times more potent than 1 and 2
Ki (Bcl-2 [3]): < 1 nM
Cleavage of PARP and caspase-3 in H146 tumor tissues (H146 xenograft tumors): robust cleavage of PARP and caspase-3
Weight loss at higher doses [4]: more than 10%

SMILES: CC1(C)CCC(c2ccc(Cl)cc2)=C(CN2CCN(c3ccc(C(=O)NS(=O)(=O)c4ccc(N[C@H](CCN5CCOCC5)CSc5ccccc5)c(S(=O)(=O)C(F)(F)F)c4)cc3)CC2)C1 [Compound 2]
Single-agent activity in patients with small cell lung cancer (small cell lung cancer): very limited single-agent activity
Concentration inducing clear cleavage of PARP and activation of caspase-3 (H146 cancer cells): 30 nM
Antitumor activity in patients in chronic lymphocytic leukemia [5]: evidence of promising antitumor activity
Antitumor activity in xenograft tumor models [6]: efficiently induce tumor regression
Concentration with a similar effect (>50% of H146 cells undergoing cell death) (H146 cell line): 30 to 100 nM

SMILES: Cc1c(C(=O)O)c(-c2cccc(N3CCN(c4ccc(NS(=O)(=O)c5ccc(N[C@H](CCN6CCOCC6)CSc6ccccc6)c(S(=O)(=O)C(F)(F)F)c5)cc4)CC3)c2)c(-c2ccc(Cl)cc2)n1C [Compound 23, (R)-5-(4-Chlorophenyl)-1,2-dimethyl-4-(3-(4-(4-(4-(4-morpholino-1-(phenylthio)butan-2-ylamino)-3-(trifluoromethylsulfonyl)phenylsulfonamido)phenyl)piperazin-1-yl)phenyl)-1H-pyrrole-3-carboxylic Acid]
Times less potent than 22 in inhibition of cell growth, H146 ([7]; relative to compound 22): 3–5 times
Times less potent than 22 in inhibition of cell growth, H1417 ([8]; relative to compound 22): 3–5 times

SMILES: Cc1c(C(=O)O)c(-c2cccc(N3CCN(c4ccc(NS(=O)(=O)c5ccc(N[C@H](CCN6CCC(O)CC6)CSc6ccccc6)c(S(=O)(=O)C(F)(F)F)c5)cc4)CC3)c2)c(-c2ccc(Cl)cc2)n1C [Compound 28, (R)-5-(4-Chlorophenyl)-4-(3-(4-(4-(4-(4-(4-hydroxypiperidin-1-yl)-1-(phenylthio)butan-2-ylamino)-3-(trifluoromethylsulfonyl)phenylsulfonamido)phenyl)piperazin-1-yl)phenyl)-1,2-dimethyl-1H-pyrrole-3-carboxylic Acid]
Antitumor activity in H146 xenograft tumor model [2]: effective in inhibition of tumor growth; also recorded: effectively inhibits tumor growth, it fails to induce tumor regression
Weight loss in tumor-bearing animals compared to the vehicle control [2]: less than 10%
Concentration inducing clear cleavage of PARP and activation of caspase-3 (H146 cancer cells): 100 nM
Ki (Bcl-xL [1]): < 1 nM
Potency in induction of cell death relative to 1 and 2 (H146 cell line): somewhat less potent than 1 and 2
Cleavage of PARP and caspase-3 in H146 tumor tissues (H146 xenograft tumors): robust cleavage of PARP and caspase-3
Weight loss at higher doses [4]: more than 10%

SMILES: Cc1c(C(=O)O)c(-c2cccc(N3CCN(c4ccc(NS(=O)(=O)c5ccc(N[C@H](CCN6CCC(O)CC6)CSc6ccccc6)c(S(=O)(=O)C(F)(F)F)c5)cc4)CC3)c2)c(-c2ccc(Cl)cc2)n1C(C)C [Compound 31, (R)-5-(4-Chlorophenyl)-4-(3-(4-(4-(4-(4-(4-hydroxypiperidin-1-yl)-1-(phenylthio)butan-2-ylamino)-3-(trifluoromethylsulfonyl)phenylsulfonamido)phenyl)piperazin-1-yl)phenyl)-1-isopropyl-2-methyl-1H-pyrrole-3-carboxylic Acid]
Ki (Bcl-xL [1]): < 1 nM
Potency in induction of cell death relative to 1 and 2 (H146 cell line): several times more potent than 1 and 2
Weight loss at higher doses [4]: more than 10%

SMILES: CN(C)CC[C@H](CSc1ccccc1)Nc1ccc(S(=O)(=O)NC(=O)c2ccc(N3CCN(Cc4ccccc4-c4ccc(Cl)cc4)CC3)cc2)cc1[N+](=O)[O-] [Compound 1, reference compound]
Antitumor activity in xenograft tumor models [6]: efficiently induce tumor regression
Concentration with a similar effect (>50% of H146 cells undergoing cell death) (H146 cell line): 30 to 100 nM

Further lines, with some results ahead:

Times less potent than 5 in binding affinity to Bcl-xL (Bcl-xL [1]): slightly less potent than 5
SMILES: Cc1c(C(=O)NCCCN2CCN(C)CC2)c(-c2cccc(N3CCN(c4ccc(NS(=O)(=O)c5cccc(Br)c5)cc4)CC3)c2)c(-c2ccc(Cl)cc2)n1C [Compound 9, 5-(4-Chlorophenyl)-4-(3-(4-(4-(3-bromophenylsulfonamido)phenyl)piperazin-1-yl)phenyl) -1,2-dimethyl-N-(3-(4-methylpiperazin-1-yl)propyl)-1H-pyrrole-3-carboxamide]

Ki (Bcl-xL [1]): < 1 nM
Binding to Mcl-1 (Mcl-1): no appreciable binding
SMILES: Cc1c(C(=O)O)c(-c2cccc(N3CCN(c4ccc(NS(=O)(=O)c5ccc(N[C@H](CCN(C)C)CSc6ccccc6)c([N+](=O)[O-])c5)cc4)CC3)c2)c(-c2ccc(Cl)cc2)n1C [Compound 4]

Ki (Bcl-xL [1]): < 1 nM
Binding to Mcl-1 (Mcl-1): no appreciable binding
SMILES: Cc1c(C(=O)O)c(-c2cccc(N3CCN(c4ccc(NS(=O)(=O)c5ccc(N[C@H](CCN(C)C)CSc6ccccc6)c(S(=O)(=O)C(F)(F)F)c5)cc4)CC3)c2)c(-c2ccc(Cl)cc2)n1C [Compound 22, (R)-5-(4-Chlorophenyl)-4-(3-(4-(4-(4-(4-(dimethylamino)-1-(phenylthio)butan-2-ylamino)-3-(trifluoromethylsulfonyl)phenylsulfonamido)phenyl)piperazin-1-yl)phenyl)-1,2-dimethyl-1H-pyrrole-3-carboxylic Acid]

Ki (Bcl-xL [1]): < 1 nM
SMILES: CCCCn1c(C)c(C(=O)O)c(-c2cccc(N3CCN(c4ccc(NS(=O)(=O)c5ccc(N[C@H](CCN6CCC(O)CC6)CSc6ccccc6)c(S(=O)(=O)C(F)(F)F)c5)cc4)CC3)c2)c1-c1ccc(Cl)cc1 [Compound 33, (R)-1-Butyl-5-(4-chlorophenyl)-4-(3-(4-(4-(4-(4-(4-hydroxypiperidin-1-yl)-1-(phenylthio)butan-2-ylamino)-3-(trifluoromethylsulfonyl)phenylsulfonamido)phenyl)piperazin-1-yl)phenyl)-2-methyl-1H-pyrrole-3-carboxylic acid]
Times less potent than 30 and 31 in inhibition of cell growth, H146 [7]: > 10 times
Times less potent than 30 and 31 in inhibition of cell growth, H1417 [8]: > 10 times

Times less potent than 5 in binding affinity to Bcl-xL (Bcl-xL [1]): 30 times
SMILES: Cc1c(C(=O)NCCCN2CCN(C)CC2)c(-c2cccc(N3CCN(c4ccc(NS(=O)(=O)c5ccccc5)cc4)CC3)c2)c(-c2ccc(Cl)cc2)n1C [Compound 6, 5-(4-Chlorophenyl)-1,2-dimethyl-N-(3-(4-methylpiperazin-1-yl)propyl)-4-(3-(4-(4-(phenylsulfonamido)phenyl)piperazin-1-yl)phenyl)-1H-pyrrole-3-carboxamide]

Times less potent than 5 in binding affinity to Bcl-xL (Bcl-xL [1]): as potent as 5
SMILES: Cc1c(C(=O)NCCCN2CCN(C)CC2)c(-c2cccc(N3CCN(c4ccc(NS(=O)(=O)c5cccc(S(=O)(=O)C(F)(F)F)c5)cc4)CC3)c2)c(-c2ccc(Cl)cc2)n1C [Compound 18, 5-(4-Chlorophenyl)-1,2-dimethyl-N-(3-(4-methylpiperazin-1-yl)propyl)-4-(3-(4-(4-(3-(trifluoromethylsulfonyl)phenylsulfonamido)phenyl)piperazin-1-yl)phenyl)-1H-pyrrole-3-carboxamide]

Binding to Mcl-1 (Mcl-1): no appreciable binding
SMILES: CCn1c(C)c(C(=O)O)c(-c2cccc(N3CCN(c4ccc(NS(=O)(=O)c5ccc(N[C@H](CCN(C)C)CSc6ccccc6)c([N+](=O)[O-])c5)cc4)CC3)c2)c1-c1ccc(Cl)cc1 [Compound 3]
Ki (Bcl-2 [9]): < 1 nM
Ki (Bcl-xL [10]): < 1 nM
Antitumor activity in H146 xenograft model [11]: fails to achieve durable tumor regression

Ki (Bcl-xL [1]): < 1 nM
SMILES: CCCn1c(C)c(C(=O)O)c(-c2cccc(N3CCN(c4ccc(NS(=O)(=O)c5ccc(N[C@H](CCN6CCC(O)CC6)CSc6ccccc6)c(S(=O)(=O)C(F)(F)F)c5)cc4)CC3)c2)c1-c1ccc(Cl)cc1 [Compound 32, (R)-5-(4-Chlorophenyl)-4-(3-(4-(4-(4-(4-(4-hydroxypiperidin-1-yl)-1-(phenylthio)butan-2-ylamino)-3-(trifluoromethylsulfonyl)phenylsulfonamido)phenyl)piperazin-1-yl)phenyl)-2-methyl-1-propyl-1H-pyrrole-3-carboxylic Acid]
Times less potent than 30 and 31 in inhibition of cell growth, H146 [7]: > 10 times
Times less potent than 30 and 31 in inhibition of cell growth, H1417 [8]: > 10 times
